{
  "source": "patent US20030069220A1",
  "about": "“METHOD FOR MASS MEDICATION IN BIOLOGICAL ATTACKS” (priority 2001, published 2003)",
  "key": {"[1]": {"conditions": "ampicillin dissolved with 95 mole-% sodium carbonate; or aqueous solution of pre-formed salt; cited from earlier work"}, "[2]": {"assay": "Dissolution of antibiotic powders (cephalosporin plus citric acid) in water, Example 1", "assay_type": "physicochemical", "method": "The following antibiotic powders were formed without sweeteners and flavorings by addition to clear plastic bags and by working of the bags. The mixtures were added to water in the amounts noted and the conditions of dissolution are noted, as well as the resultant pH or the formed solution. Although Example 1 describes the use of citric acid, various other constituents may be utilized as a […] (e.g., various amino acids)."}, "[3]": {"conditions": "in vivo; cited from earlier work"}},
  "data": [
    {"smiles": "CC1(C)S[C@@H]2[C@H](NC(=O)[C@H](N)c3ccccc3)C(=O)N2[C@H]1C(=O)[O-].[Na+]", "note": "[sodium ampicillin]", "values": [
      {"measurement": "pH of aqueous solution", "setting": "[1]", "result": "~9.5"}
    ]},
    {"smiles": "CC1(C)S[C@@H]2[C@H](NC(=O)[C@H](N)c3ccccc3)C(=O)N2[C@H]1C(=O)O", "note": "[ampicillin]", "values": [
      {"measurement": "pH of aqueous solution", "setting": "[1]", "result": 8.3}
    ]},
    {"smiles": "CC1=C(C(=O)O)N2C(=O)[C@@H](NC(=O)[C@H](N)c3ccccc3)[C@H]2SC1", "note": "[Cephalexin, αaminobenzyl-3-desacetoxycephalosporin]", "values": [
      {"measurement": "pH of the formed solution", "setting": "[2]", "result": "pH of 3.3."},
      {"measurement": "time to form a solution", "setting": "[2]", "result": "solution in 5 minutes"},
      {"measurement": "absorbed by the body when ingested", "setting": "[3]", "result": 90, "unit": "%"}
    ]}
  ]
}
